Reference: publication PMC9820430, “New Affordable Methods for Large-Scale Isolation of Major Olive Secoiridoids and Systematic Comparative Study of Their Antiproliferative/Cytotoxic Effect on Multiple Cancer Cell Lines of Different Cancer Origins” (International Journal of Molecular Sciences, 2022)
Where two headings read alike, the source gives them in different places.

Legend:
SK-MEL-28 [1] = test: Annexin V-FITC/PI staining, flow cytometry; assay type: cell-based, human
Text: (§1) To discern whether cell death triggered by OOPs treatment occurred via apoptosis or necrosis under the experimental conditions applied in this study, live cells treated with OOPs were stained simultaneously with FITC-conjugated annexin V and propidium iodide (PI). Annexin V binds to phosphatidylserine (PS) translocating from the inner to the outer leaflet of the plasma membrane in apoptotic cells. Therefore, annexin V-FITC binding to PS labels live apoptotic cells with green FL. […] PS exposure to the extracellular space and cell membrane permeability were analyzed by flow cytometry as described in detail in the Experimental Section. […] OOP concentrations used were equal to the EC50 values for each cell line (Table 1). annexin V and PI staining discriminated between early- (i.e., annexin V +ve and PI −ve) and late-apoptotic cells (i.e., annexin V +ve and PI +ve), as well as between necrotic (i.e., annexin V −ve and PI +ve) and live (i.e., annexin V −ve and PI −ve) cells (Table 4).
(§2) Apoptosis and necrosis were assessed by double staining with annexin V-FITC and propidium iodide (PI) and were analyzed using flow cytometry (FACS). Human cancer cells were plated in 96-well culture plates in 100 μL of complete medium and were allowed to adhere overnight (~16 h). […] In detail, 0.5 μL of a 500× stock of each tested compound in DMSO was added directly into each well in a final volume of 250 μL culture medium and was gently mixed by pipetting. Control wells were prepared under the same experimental conditions by adding only DMSO at a final concentration of 0.2% (v/v). At the end of the treatment, the cells were detached by trypsinization, media with serum was added to deactivate trypsin, and the cells from three wells were pooled together by centrifugation (1000 rpm, 5 min, 24 °C), washed with cold PBS, centrifuged (1000 rpm, 5 min, 24 °C) and finally resuspended in cold 1× annexin V binding buffer (10 mM HEPES pH = 7.4, 150 mM NaCl, 2.5 mM CaCl2) at a density of 10^4 cells/mL. Staining was performed by incubating with annexin V- FITC and propidium iodide (PI; BioLegend) for 15 min at room temperature in the dark, according to the manufacturer’s instructions. […] Cells treated with Triton X-100 (0.25% (v/v)) for 5 min at 4 °C were used as controls for 100% permeabilization of the plasma membrane and maximum fluorescence staining with PI (positive control for cells in necrosis). The presence of live, apoptotic or necrotic cells was assessed with the FACS Calibur (Becton–Dickinson, San Jose, CA, USA). In total, 10,000 cells were analyzed per measurement and the acquired data were analyzed using the FlowJo V.10.0.8 software (Tree Star Inc., Ashland, OR, USA). Each condition was analyzed in duplicate, and the results presented are from 2 or 3 independent experiments.
(§3) Data showing OOPs’ apoptotic/necrotic effect were derived from two or three independent experiments and were presented as the means ± SE of the percentage (%) of both annexin V-positive cells (early apoptotic events) and % of annexin V/PI positive cells (late apoptotic events) over the whole cell population normalized to the corresponding events of the control cells, as determined using the FlowJo software.

MDA-MB 231 [2] = test: Annexin V-FITC/PI staining, flow cytometry; assay type: cell-based, human
Text: as §1, §2, §3

Caco-2 = test: ATP-based luminescence cell viability assay (ViaLight), 72 h; design: species or system human; conditions: 72 h treatment, read-out: EC50 Values of Olive Oil Polyphenols
Description: (§4) The antiproliferative/cytotoxic effects of the selected OOPs on each cell line were assessed by measuring the cellular ATP levels after 72 h treatments using an ATP-based luminescence assay. This assay, initially developed as a tumor chemosensitivity assay, has shown considerable promise as a general in vitro toxicity assay due to its high sensitivity that allows the detection of a small number of cells. Consequently, it can be applied to both cancer cell lines and primary tissue cells. […] The EC50 values were calculated by nonlinear regression (curve fit) using a sigmoidal dose–response equation (Figure 2A and Figure S2).
(§5) The OOPs tested in this study were first dissolved in an appropriate DMSO volume such as to prepare a final stock solution of 50 mM, which was further used to prepare various compound concentrations in DMSO-based solutions. The final DMSO concentration in the cell culture was maintained constant in all treated groups of any given experiment and never exceeded the value of 0.2% (v/v). For the treatment experiments, cells were plated in 96-well culture plates, in 100 μL of complete medium at a seeding density of 5000–10,000 cells/well—depending on cells’ size and doubling time—and were allowed to adhere overnight (~16 h). The next day, 150 μL of complete medium was added to each well and the cells were treated with various concentrations of OOPs. Each concentration was tested in triplicate and was repeated 2–3 times. To prepare the final concentration solutions, 0.5 μL of a 500× stock of each tested compound in DMSO was added directly into each well in a final volume of 250 μL culture medium and was gently mixed by pipetting. Control wells were prepared under the same experimental conditions by adding only DMSO at a final concentration of 0.2% (v/v). Compounds were not renewed during the entire period of cell exposure. All cells were cultured at 37 °C in a 5% (v/v) CO2 for 24, 48 or 72 h.
(§6) Briefly, after the treatment with OOPs, the adapted medium was removed from the dish wells and the cells were washed twice with medium without FBS. Then, the C-lysis (LT27-076) was diluted in PBS (1:2) and a volume of 50 μL was added to each well. Cells were incubated with C-lysis for at least 10 min. Finally, an equal volume of lysed cells from each well and ATP monitoring reagent (AMR; LT27-212) was transferred to the wells of a white-walled illuminometer plate (Greiner bio-one; 655074). Cell viability was quantified by measuring luminescence using a multi-mode microplate reader Safire^2 Tecan (software Magellan V6.00 STD.2PC WIN.20000/XP).

Hela = test: as above; design: species or system human; conditions: 72 h treatment, read-out: EC50 Values of Olive Oil Polyphenols
Description: as §4, §5, §6

SK-MEL-28 [3] = test: as above; design: species or system human; conditions: for Selectivity index SI (HaCaT): EC50 HaCaT / EC50 SK-MEL-28; for Selectivity index SI (NHDF): EC50 NHDF / EC50 SK-MEL-28; for EC50: SK-MEL-28, 72 h treatment, read-out: EC50 Values of Olive Oil Polyphenols
Description: as §4, §5, §6

MKN-45 = test: as above; design: species or system human; conditions: 72 h treatment, read-out: EC50 Values of Olive Oil Polyphenols
Description: as §4, §5, §6

MDA-MB 231 [4] = test: as above; design: species or system human; conditions: for Selectivity index SI (MCF 10A): EC50 MCF 10A / EC50 MDA-MB 231; for EC50: MDA-MB 231, 72 h treatment, read-out: EC50 Values of Olive Oil Polyphenols
Description: as §4, §5, §6

HT-29 = test: as above; design: species or system human; conditions: 72 h treatment, read-out: EC50 Values of Olive Oil Polyphenols
Description: as §4, §5, §6

MCF-10A cells = tested on: MCF-10A cells; design: method as in PMID 23403296, PMID 33117773, PMID 24849787, PMID 30964898; conditions: cited from earlier work

Molecule	% Cell Viability (SK-MEL-28 [1]; 48 h at EC50) [%]	Early Apoptotic (% ± S.D.) (SK-MEL-28 [1]; 48 h at EC50) [%]	Late Apoptotic (% ± S.D.) (SK-MEL-28 [1]; 48 h at EC50)	Total Apoptotic (%) (SK-MEL-28 [1]; 48 h at EC50)	% Cell Viability (MDA-MB 231 [2]; 48 h at EC50) [%]	Early Apoptotic (% ± S.D.) (MDA-MB 231 [2]; 48 h at EC50) [%]	Late Apoptotic (% ± S.D.) (MDA-MB 231 [2]; 48 h at EC50) [%]	Total Apoptotic (%) (MDA-MB 231 [2]; 48 h at EC50)	EC50 (Caco-2; Homo sapiens, Caco-2, 72 h) [µM]	EC50 (Hela; Homo sapiens, HeLa, 72 h) [µM]	Selectivity index SI (HaCaT) (SK-MEL-28 [3])	Selectivity index SI (NHDF) (SK-MEL-28 [3])	EC50 (SK-MEL-28 [3]; Homo sapiens, SK-MEL-28, 72 h) [µM]	EC50 (SK-MEL-28 [3]) [µM]	EC50 (MKN-45; Homo sapiens, MKN-45, 72 h) [µM]	Selectivity index SI (MCF 10A) (MDA-MB 231 [4])	EC50 (MDA-MB 231 [4]; Homo sapiens, MDA-MB-231, 72 h) [µM]	EC50 (MDA-MB 231 [4]) [µM]	EC50 (HT-29; Homo sapiens, HT-29, 72 h) [µM]	EC50 (Caco-2) [µM]	also measured
COC(=O)C1=COC(C)[C@@H](C=O)[C@@H]1CC(=O)OCCc1ccc(O)c(O)c1 (mixture of isomers) [3a,b, oleuropein aglycone]	68	8.33 ± 1.9	4.91 ± 1.7%	13.24 ± 3.7	69	4.17± 0.4	3.87 ± 3.7	8.04 ± 4.1	24.5 ± 0.9	27.6 ± 0.3	2.4	2.8	22.2	15.1 ± 0.9	16.4 ± 1.6	0.4	24.5	25.4 ± 0.8	50.1 ± 1.5	–	sensitivity of cells to treatment (MCF-10A cells; 150 μM): resistant
C/C=C(/C=O)[C@@H](CC=O)CC(=O)OCCc1ccc(O)cc1 [compound 1, oleocanthal]	68	4.10 ± 0.2	2.47 ± 0.7%	6.57 ± 0.5	85	1.19 ± 0.01	1.38 ± 0.1	2.56 ± 0.1	33.4	44.6 ± 0.4	–	–	10.4 ± 1.1	–	10.2 ± 0.4	–	10.4 ± 0.8	–	26.3 ± 2	34.3 ± 4.1	sensitivity of cells to treatment (MCF-10A cells; 40 μM): resistant
ligstroside aglycone [4a,b]	82	1.86 ± 0.8	No L.A.	1.86 ± 0.8	–	–	–	–	–	–	2.5	2.1	–	22.2 ± 1.2	–	1.9	–	31.6 ± 2.7	–	24.4 ± 1.6	EC50 (Hela): 47.6 ± 1.8 µM; EC50 (MKN-45): 24 ± 1.2 µM; EC50 (HT-29): 98.2 ± 8.4 µM; sensitivity of cells to treatment (MCF-10A cells; 50 μM): resistant
C/C=C(/C=O)[C@@H](CC=O)CC(=O)OCCc1ccc(O)c(O)c1 [compound 2, oleacein]	76	5.87 ± 1.1	No L.A.	5.87 ± 1.1	73	1.89 ± 0.03	1.49 ± 0.3	3.38 ± 0.2	> 100	46.3 ± 4.9	1.6	1.5	33.4 ± 2.4	–	25 ± 2.1	0.7	37.7 ± 2.2	–	> 100	–	% Cell Viability (SK-MEL-28 [1]; 72 h at EC50): 72%; Early Apoptotic (% ± S.D.) (SK-MEL-28 [1]; 72 h at EC50): 6.70 ± 1.0%; Late Apoptotic (% ± S.D.) (SK-MEL-28 [1]; 72 h at EC50): 1.34 ± 0.3%; Total Apoptotic (%) (SK-MEL-28 [1]; 72 h at EC50): 8.04 ± 0.7%; % Cell Viability (MDA-MB 231 [2]; 72 h at EC50): 70%; Early Apoptotic (% ± S.D.) (MDA-MB 231 [2]; 72 h at EC50): 3.65 ± 0.5%; Late Apoptotic (% ± S.D.) (MDA-MB 231 [2]; 72 h at EC50): 1.64 ± 0.5%; Total Apoptotic (%) (MDA-MB 231 [2]; 72 h at EC50): 5.29 ± 1.0%
